PubChem BioAssay (NCI)
“And” between values parts separate entries of the source, which are not always exact repeats. Equal entries are not always repeated.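 Five compound concentrations were applied to cells in 96-well plates for 48 hours; endpoints were derived by simple linear interpolation of the resulting dose-response curve. GI50 marks 50% less growth. At the TGI there is no net growth.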

Tests used:
Experiment in all cases: inhibition of tumour cell growth, NCI panel, 48 h
[1] = test system: MALME-3M melanoma
[2] = test system: HOP-92 NSCLC
[3] = test system: RPMI-8226 leukemia
[4] = test system: OVCAR-8 ovarian
[5] = test system: SK-MEL-5 melanoma
[6] = test system: M14 melanoma
[7] = test system: KM12 colon
[8] = test system: UACC-62 melanoma
[9] = test system: LOX IMVI melanoma
[10] = test system: SR leukemia

Row | Compound | TGI [1] | TGI [2] | TGI [3] | TGI [4] | TGI [5] | TGI [6] | TGI [7] [µM] | TGI [8] | TGI [9] | TGI [10] | GI50 [1] [µM] | GI50 [2] [µM] | GI50 [3] [µM] | GI50 [4] [µM] | GI50 [5] [µM] | GI50 [6] [µM] | GI50 [7] [µM] | GI50 [8] [µM] | GI50 [9] [µM] | GI50 [10] [µM]
1 | CCN1C(=O)/C(=C\c2coc3ccccc3c2=O)SC1=S | > 100 µM | > 100 µM | > 100 µM | > 100 µM | > 100 µM | > 100 µM | > 100 | > 100 µM | > 100 µM | > 100 µM |  |  |  |  |  |  |  |  |  | 
2 | COc1cccc(-c2cc(C(=O)Nc3ccc(Cl)cc3)nc(N)n2)c1 | > 100 µM | > 100 µM | > 100 µM | > 100 µM | > 100 µM | > 100 µM | > 100 | > 100 µM | > 100 µM | > 100 µM |  |  |  |  |  |  |  |  |  | 
3 | O=C1c2cccc3c([N+](=O)[O-])ccc(c23)C(=O)N1CCCCl | > 10 µM | > 10 µM | > 10 µM | > 10 µM | > 10 µM | > 10 µM | > 10 | > 10 µM | 2.96 µM | > 10 µM | 9.77 | > 10 | 4.61 | 3.86 | > 10 | 5.85 | 6.11 | 4.48 | 1.47 | 0.334
4 | C/C(=N\N)C(CN1CCCCC1)C(c1ccccc1)c1c(O)c2ccccc2oc1=O (centres undefined) | > 100 µM | > 100 µM | > 100 µM | > 100 µM | > 100 µM | > 100 µM | > 100 | > 100 µM | > 31.6 µM | > 100 µM |  |  |  |  |  |  |  |  |  | 
5 | CC[C@@]1(O)C(=O)OCc2c1cc1n(c2=O)Cc2cc3c([N+](=O)[O-])c(O)ccc3nc2-1 | 12.7 µM | 6.56 µM | 9.39 µM | 12.7 µM | 2.39 µM | 2.47 µM | 20.9 | 0.265 µM | 0.91 µM | < 0.0215 µM | 1.06 | 1.26 | 0.848 | 0.249 | 0.459 | 0.188 | 1.68 | 0.0255 | 0.0552 | 
6 | CS(=O)(=O)OCCCCOS(C)(=O)=O | 250 µM and > 1000 µM | 250 µM and > 948 µM | 250 µM and > 1000 µM | 250 µM and > 1000 µM | 242 µM and > 1000 µM | 250 µM and > 1000 µM | > 1000 | 250 µM and > 1000 µM | 248 µM and > 1000 µM | 223 µM and > 1000 µM | > 1000 | 570 | 95.9 | > 873 | 520 | 765 | > 872 | 472 | 5.96 | 100
7 | O=C(/C=C/c1ccccc1)Nc1ncc(Cc2ccccc2)s1 | > 100 µM | > 84.8 µM | > 28 µM | > 40.9 µM | 10.1 µM | 3.03 µM | 13 | 4.28 µM | > 23.2 µM | 10.2 µM | 1.08 | 4.72 | 0.309 | 0.488 | 0.196 | 0.114 | 0.149 | 0.125 | 0.139 | 0.0501
